Active and inactive are the calls of the source. The calls are words filed in the database; no cut-off is given here.
What was measured:
[1] = Binding affinity to biotin-labeled DNA hairpin (unknown origin) by SPR analysis
[2] = Binding affinity to ADAM10 RNA G-quadruplex (unknown origin) at 1 uM after 24 hrs by spectrophotometric method
[3] = Binding affinity to c-MYC Pu27 DNA G-quadruplex (unknown origin) at 1 uM after 24 hrs by spectrophotometric method
[4] = organism: Homo sapiens; assay: Destabilization of human wild type internal ribosome entry site A RNA G-quadruplex assessed as melting temperature at 5 uM by CD spectra method (reference value: 80.9 +/- 0.8 degreeC)
[5] = tested on: MCF7; assay: Effect on human wild type internal ribosome entry site A RNA G-quadruplex transcription expressed in human MCF7 cells assessed as Met luciferase gene expression at 0.1875 to 1.5 uM after 20 hrs by RT-PCR analysis; assay type: functional, cell-based
[6] = organism: Homo sapiens; assay: Destabilization of human wild type internal ribosome entry site A RNA G-quadruplex expressed in MCF7 cells assessed as down regulation of VEGF-A translation at 1.5 uM after 24 hrs by dual-luciferase reporter gene assay relative to control; assay type: cell-based
[7] = organism: Homo sapiens; assay: Destabilization of human wild type internal ribosome entry site A RNA G-quadruplex expression in human MCF7 cells assessed as decrease in VEGF-A protein expression at 0.1875 to 3 uM by Western blot analysis; assay type: cell-based
[8] = tested on: MCF7; assay: Cytotoxicity against human MCF7 cells after 48 hrs relative to control; assay type: cell-based; details: mcf7, 48 h
[9] = tested on: MCF7; assay: Antitumor activity against human MCF7 cells xenografted in nude Balb/c mouse assessed as reduction in tumor weight at 7.5 mg/kg, ip qd for 20 days relative to control; assay type: functional; parameters: scale not given: the % may be the effect or the level left
[10] = Binding affinity to 5'- FAM-labeled 5'-GGAGGAGGGGGAGGAGGA-3' DNA (unknown origin) up to 60 uM after 5 mins by MST analysis
[11] = Binding affinity to NRAS-RNA G-quadruplex (unknown origin) at 1 uM after 24 hrs by spectrophotometric method
[12] = tested on: Mus musculus; assay: Toxicity in nude Balb/c mouse xenografted with human MCF7 cells assessed as change in body weight at 7.5 mg/kg, ip qd for 20 days; assay type: organism-based; details: in vivo, 480 h
[13] = organism: Bos taurus; assay: Binding affinity to calf thymus DNA at 1 uM after 24 hrs by spectrophotometric method
[14] = organism: Homo sapiens; assay: Binding affinity to 5'- FAM-labeled human 5'-UGAUGAGUGUGAGUAGUA-3' RNA at 100 uM after 5 mins by MST analysis
[15] = organism: Homo sapiens; assay: Selectivity ratio of Kd for biotin labeled human 5'-UGAUGAGUGUGAGGAGGA-3' RNA G-quadruplex to Kd for biotin-labeled human wild type internal ribosome entry site A RNA G-quadruplex
[16] = organism: Homo sapiens; assay: Binding affinity to human 5'-AGGAGCCGCAGCCGGAAGAGGAGAGGGGGCCGC-3' DNA at 1 uM after 24 hrs by spectrophotometric method
[17] = tested on: MCF7; assay: Effect on human VEGF-A transcription expressed in human MCF7 cells assessed as Met luciferase gene expression at 0.1875 to 3 uM by RT-PCR analysis; assay type: functional, cell-based
[18] = Binding affinity to TBA DNA G-quadruplex (unknown origin) at 1 uM after 24 hrs by spectrophotometric method
[19] = organism: Homo sapiens; assay: Inhibition of BG4 protein binding to human wild type internal ribosome entry site A RNA G-quadruplex in MCF7 cells transfected with pcDNA3.1-BG4 plasmid at 2.5 to 5 uM after 24 hrs by qRT-PCR analysis; assay type: cell-based
[20] = organism: Homo sapiens; assay: Inhibition of NT-647 dye-labeled BG4 antibody binding to human 5'-UGAUGAGUGUGAGUAGUA-3' RNA by MST analysis
[21] = tested on: MCF7; assay: Effect on human VEGF-A transcription expressed in human MCF7 cells assessed as Met luciferase gene expression at 0.1875 to 3 uM by qRT-PCR analysis; assay type: functional, cell-based
[22] = Binding affinity to 5'- FAM-labeled human 5'-UGAUGAGUGUGAGGAGGA-3' RNA G-quadruplex after 5 mins by MST analysis
[23] = organism: Homo sapiens; assay: Binding affinity to internal ribosome entry site A RNA G-quadruplex region of VEGF-A protein in human MDA-MB-231 cells assessed as inhibition of VEGF-A protein induced cell migration at 0.5 to 8 uM after 4 hrs by RTCA method; assay type: cell-based
[24] = organism: Homo sapiens; assay: Binding affinity to wild type human internal ribosome entry site A RNA G-quadruplex at 1 uM after 24 hrs by spectrophotometric method
[25] = organism: Homo sapiens; assay: Binding affinity to human 5'-UCGGGCCGGGAGGAGCCGCAGCCGGAA-3' […] at 1 uM after 24 hrs by spectrophotometric method
[26] = Binding affinity to C-kit 1 DNA G-quadruplex (unknown origin) at 1 uM after 24 hrs by spectrophotometric method
[27] = Binding affinity to BCL-2 RNA G-quadruplex (unknown origin) at 1 uM after 24 hrs by spectrophotometric method
[28] = organism: Homo sapiens; assay: Inhibition of BG4 antibody binding to internal ribosome entry site A RNA G-quadruplex in human MCF7 cells preincubated for 24 hrs followed by BG4 antibody addition measured after 12 hrs by dot blot hybridization assay; assay type: cell-based
[29] = Binding affinity to 5'- FAM-labeled c-Kit1 G-quadruplex DNA (unknown origin) up to 100 uM after 5 mins by MST analysis
[30] = Binding affinity to biotin-labeled human wild type internal ribosome entry site A RNA G-quadruplex by SPR analysis
[31] = Selectivity ratio of Kd for biotin-labeled hairpin DNA (unknown origin) to Kd for biotin-labeled human wild type internal ribosome entry site A RNA G-quadruplex
[32] = tested on: MCF7; assay: Effect on BG4 protein expression in human MCF7 cells up to 1.5 uM by Western blot method; assay type: ADME, cell-based
[33] = organism: Homo sapiens; assay: Binding affinity to internal ribosome entry site A RNA G-quadruplex region of VEGF-A protein in human MDA-MB-231 cells assessed as inhibition of VEGF-A protein induced cell migration at 0.5 to 8 uM after 10 hrs by RTCA method; assay type: cell-based
[34] = organism: Homo sapiens; assay: Destabilization of human 5'-FAM-labeled 5'-UGAUGAGUGUGAGUAGUA-3' RNA up to 10 uM measured after 3 hrs by electrophoresis mobility shift assay
[35] = Binding affinity to TERRA RNA G-quadruplex (unknown origin) at 1 uM after 24 hrs by spectrophotometric method
[36] = organism: Homo sapiens; assay: Destabilization of human internal ribosome entry site A RNA G-quadruplex by CD spectral analysis
[37] = organism: Homo sapiens; assay: Destabilization of wild type internal ribosome entry site A RNA G-quadruplex in CoCl2 treated human MCF7 cells assessed as decrease in VEGF-A protein expression at 0.1875 to 3 uM after 48 hrs by Western blot analysis
[38] = Binding affinity to RNA hairpin (unknown origin) at 1 uM after 24 hrs by spectrophotometric method
[39] = organism: Homo sapiens; assay: Binding affinity to internal ribosome entry site A RNA G-quadruplex region of VEGF-A protein in CoCl2 treated human MCF7 cells assessed as VEGF-A protein induced cell migration at 3 uM preincubated for 48 hrs followed by VEGF-A protein addition measured after 12 hrs by cell scrape test relative to control

Kd [1]: 21.2 µM | Activity [2]: inactive | Activity [3]: inactive | Tm [4]: 62.2 °C | Activity [10]: Active | Activity [11]: inactive | Activity [13]: inactive | Activity [14]: inactive | Selectivity ratio [15]: 4 | Activity [16]: inactive | Activity [18]: inactive | inhibition [20]: Active | Kd [22]: 13.4 to 20.5 µM | Activity [24]: Active | Activity [25]: inactive | Activity [26]: inactive | Activity [27]: inactive | Activity [29]: Active | Kd [30]: 0.928 µM | Selectivity ratio [31]: 23 | Activity [34]: inactive | Activity [35]: inactive | Activity [36]: Dose-dependent effect | Activity [37]: Dose-dependent effect | Activity [38]: inactive | Activity [39]: 35%
Structure (SMILES): CCN(CC)CCOc1ccc(Nc2nc(-c3ccccc3NC(=O)CCN3CCN(C)CC3)nc3ccccc23)cc1
Activity [5]: inactive | Activity [6]: 80% | Activity [7]: Active | Activity [8]: 82.7% | Activity [9]: 60.1% | Activity [12]: Non-Toxic | Activity [17]: inactive | inhibition [19]: Active | Activity [21]: inactive | Activity [23]: Active | inhibition [28]: Dose-dependent effect | Activity [32]: Non-Toxic | Activity [33]: inactive
